Legend:
Assay in all cases: Kinase selectivity, DiscoverX scanMAX Kinase assay panel (% control)
Type in all cases: binding
[1] = target: T1, kinases of the scanMAX Kinase assay panel (Homo sapiens, UniProt Q13153); conditions: PAK1; 1 uM
T1 construct: purchased DiscoverX Co. (contract measurement) scanMAX Kinase assay panel
Outline: (§1)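 Read-out is % control, normalised so a positive-control compound sits at 0% and DMSO at 100%: (test − positive)/(negative − positive)×100. Each kinase received the compound at 1 uM in DMSO. A value below 35% counts as activity.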

[2] = target: T2, kinases of the scanMAX Kinase assay panel (Homo sapiens, UniProt O94806); conditions: PRKD3; 1 uM
T2 construct: purchased DiscoverX Co. (contract measurement) scanMAX Kinase assay panel
T2 sequence (O94806 1-890): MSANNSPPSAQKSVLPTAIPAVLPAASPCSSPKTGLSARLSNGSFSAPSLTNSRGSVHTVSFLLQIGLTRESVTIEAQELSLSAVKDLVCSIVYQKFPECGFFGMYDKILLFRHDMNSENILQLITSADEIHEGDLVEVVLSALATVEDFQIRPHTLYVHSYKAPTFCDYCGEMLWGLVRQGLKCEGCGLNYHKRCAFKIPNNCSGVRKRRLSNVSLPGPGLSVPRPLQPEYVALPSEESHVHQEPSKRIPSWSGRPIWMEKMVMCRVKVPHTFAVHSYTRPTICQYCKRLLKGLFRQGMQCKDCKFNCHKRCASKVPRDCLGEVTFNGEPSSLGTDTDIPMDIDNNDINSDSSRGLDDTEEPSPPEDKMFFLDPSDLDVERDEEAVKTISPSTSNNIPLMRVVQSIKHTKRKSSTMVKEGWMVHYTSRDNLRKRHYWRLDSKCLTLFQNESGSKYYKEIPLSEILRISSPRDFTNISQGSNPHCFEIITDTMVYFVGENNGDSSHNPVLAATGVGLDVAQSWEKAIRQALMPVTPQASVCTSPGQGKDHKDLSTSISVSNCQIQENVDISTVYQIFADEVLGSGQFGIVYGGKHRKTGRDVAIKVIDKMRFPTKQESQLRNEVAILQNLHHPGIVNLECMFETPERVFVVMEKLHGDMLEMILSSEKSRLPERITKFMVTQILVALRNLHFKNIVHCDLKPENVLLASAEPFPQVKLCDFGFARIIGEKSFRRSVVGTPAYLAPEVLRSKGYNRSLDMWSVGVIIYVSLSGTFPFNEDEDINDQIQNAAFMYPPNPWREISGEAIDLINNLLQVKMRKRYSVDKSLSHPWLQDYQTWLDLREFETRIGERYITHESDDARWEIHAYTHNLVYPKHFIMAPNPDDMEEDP
Outline: as §1

[3] = target: T3, kinases of the scanMAX Kinase assay panel (Homo sapiens, UniProt P00519, F317I); conditions: 1 uM
T3 construct: purchased DiscoverX Co. (contract measurement) scanMAX Kinase assay panel
Outline: as §1

[4] = target: T4, kinases of the scanMAX Kinase assay panel (Homo sapiens, UniProt P45985); conditions: MEK4; 1 uM
T4 construct: purchased DiscoverX Co. (contract measurement) scanMAX Kinase assay panel
T4 sequence (P45985 1-399): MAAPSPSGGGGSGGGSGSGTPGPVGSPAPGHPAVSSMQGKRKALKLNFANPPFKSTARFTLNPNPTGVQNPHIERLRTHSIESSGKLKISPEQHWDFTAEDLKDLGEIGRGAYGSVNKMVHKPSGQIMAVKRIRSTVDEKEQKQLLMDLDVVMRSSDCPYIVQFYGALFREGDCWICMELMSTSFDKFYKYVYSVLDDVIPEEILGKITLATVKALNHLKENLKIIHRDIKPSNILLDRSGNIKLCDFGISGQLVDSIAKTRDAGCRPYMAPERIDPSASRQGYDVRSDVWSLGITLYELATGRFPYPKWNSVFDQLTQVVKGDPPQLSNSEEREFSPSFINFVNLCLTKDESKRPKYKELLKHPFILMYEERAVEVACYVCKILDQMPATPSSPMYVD
Outline: as §1

[5] = target: T5, kinases of the scanMAX Kinase assay panel (Homo sapiens, UniProt P00533, L858R/T790M); conditions: EGFR(L858R, T790M); 1 uM
T5 construct: purchased DiscoverX Co. (contract measurement) scanMAX Kinase assay panel
Outline: as §1

[6] = target: T6, kinases of the scanMAX Kinase assay panel (Homo sapiens, UniProt O43683); conditions: BUB1; 1 uM
T6 construct: purchased DiscoverX Co. (contract measurement) scanMAX Kinase assay panel
Outline: as §1

[7] = target: T7, kinases of the scanMAX Kinase assay panel (Homo sapiens, UniProt O95819); conditions: MAP4K4; 1 uM
T7 construct: purchased DiscoverX Co. (contract measurement) scanMAX Kinase assay panel
Outline: as §1

T1 sequence (Q13153 whole entry): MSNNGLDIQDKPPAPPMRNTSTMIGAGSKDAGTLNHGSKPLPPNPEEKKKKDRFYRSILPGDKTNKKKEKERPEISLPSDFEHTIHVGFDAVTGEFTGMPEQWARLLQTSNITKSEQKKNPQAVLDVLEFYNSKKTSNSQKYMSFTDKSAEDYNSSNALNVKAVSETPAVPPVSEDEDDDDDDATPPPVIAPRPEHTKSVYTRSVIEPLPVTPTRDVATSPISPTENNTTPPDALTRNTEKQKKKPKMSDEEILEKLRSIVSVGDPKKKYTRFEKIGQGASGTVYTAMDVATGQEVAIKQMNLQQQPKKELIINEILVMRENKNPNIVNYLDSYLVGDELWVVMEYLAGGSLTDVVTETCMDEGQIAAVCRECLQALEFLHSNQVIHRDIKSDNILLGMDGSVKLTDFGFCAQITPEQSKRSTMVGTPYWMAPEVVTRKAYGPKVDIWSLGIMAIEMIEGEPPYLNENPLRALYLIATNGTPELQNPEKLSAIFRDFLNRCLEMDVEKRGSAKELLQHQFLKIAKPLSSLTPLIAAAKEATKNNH
T3 sequence (P00519 whole entry F317I): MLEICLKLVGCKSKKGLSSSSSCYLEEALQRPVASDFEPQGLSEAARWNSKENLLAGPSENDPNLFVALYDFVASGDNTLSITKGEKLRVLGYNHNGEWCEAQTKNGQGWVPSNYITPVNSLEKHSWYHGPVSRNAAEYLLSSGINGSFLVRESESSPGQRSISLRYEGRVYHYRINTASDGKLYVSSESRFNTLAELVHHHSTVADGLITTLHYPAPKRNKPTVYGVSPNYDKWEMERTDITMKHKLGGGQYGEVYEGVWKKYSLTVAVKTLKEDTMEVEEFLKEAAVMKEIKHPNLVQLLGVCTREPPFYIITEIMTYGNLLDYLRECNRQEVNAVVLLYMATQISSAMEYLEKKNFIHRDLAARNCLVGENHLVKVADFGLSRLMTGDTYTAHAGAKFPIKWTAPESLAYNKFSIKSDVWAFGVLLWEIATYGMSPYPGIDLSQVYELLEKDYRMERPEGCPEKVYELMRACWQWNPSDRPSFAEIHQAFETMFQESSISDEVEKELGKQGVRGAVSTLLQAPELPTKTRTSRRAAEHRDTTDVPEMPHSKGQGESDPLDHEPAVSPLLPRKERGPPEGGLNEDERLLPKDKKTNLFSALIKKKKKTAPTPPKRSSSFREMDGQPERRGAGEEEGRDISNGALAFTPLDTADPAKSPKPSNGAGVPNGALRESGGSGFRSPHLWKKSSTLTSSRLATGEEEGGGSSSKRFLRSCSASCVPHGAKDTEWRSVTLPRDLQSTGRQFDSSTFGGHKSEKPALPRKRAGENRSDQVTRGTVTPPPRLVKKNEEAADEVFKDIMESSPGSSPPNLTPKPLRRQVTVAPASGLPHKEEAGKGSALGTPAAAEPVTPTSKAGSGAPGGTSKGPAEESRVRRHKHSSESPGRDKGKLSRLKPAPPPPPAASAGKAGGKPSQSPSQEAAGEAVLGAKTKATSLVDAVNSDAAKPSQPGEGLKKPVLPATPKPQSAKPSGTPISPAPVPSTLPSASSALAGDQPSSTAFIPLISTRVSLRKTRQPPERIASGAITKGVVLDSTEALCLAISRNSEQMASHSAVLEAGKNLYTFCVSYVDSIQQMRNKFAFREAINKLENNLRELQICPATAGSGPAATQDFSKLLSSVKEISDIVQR
T5 sequence (P00533 25-1210 T790M/L858R): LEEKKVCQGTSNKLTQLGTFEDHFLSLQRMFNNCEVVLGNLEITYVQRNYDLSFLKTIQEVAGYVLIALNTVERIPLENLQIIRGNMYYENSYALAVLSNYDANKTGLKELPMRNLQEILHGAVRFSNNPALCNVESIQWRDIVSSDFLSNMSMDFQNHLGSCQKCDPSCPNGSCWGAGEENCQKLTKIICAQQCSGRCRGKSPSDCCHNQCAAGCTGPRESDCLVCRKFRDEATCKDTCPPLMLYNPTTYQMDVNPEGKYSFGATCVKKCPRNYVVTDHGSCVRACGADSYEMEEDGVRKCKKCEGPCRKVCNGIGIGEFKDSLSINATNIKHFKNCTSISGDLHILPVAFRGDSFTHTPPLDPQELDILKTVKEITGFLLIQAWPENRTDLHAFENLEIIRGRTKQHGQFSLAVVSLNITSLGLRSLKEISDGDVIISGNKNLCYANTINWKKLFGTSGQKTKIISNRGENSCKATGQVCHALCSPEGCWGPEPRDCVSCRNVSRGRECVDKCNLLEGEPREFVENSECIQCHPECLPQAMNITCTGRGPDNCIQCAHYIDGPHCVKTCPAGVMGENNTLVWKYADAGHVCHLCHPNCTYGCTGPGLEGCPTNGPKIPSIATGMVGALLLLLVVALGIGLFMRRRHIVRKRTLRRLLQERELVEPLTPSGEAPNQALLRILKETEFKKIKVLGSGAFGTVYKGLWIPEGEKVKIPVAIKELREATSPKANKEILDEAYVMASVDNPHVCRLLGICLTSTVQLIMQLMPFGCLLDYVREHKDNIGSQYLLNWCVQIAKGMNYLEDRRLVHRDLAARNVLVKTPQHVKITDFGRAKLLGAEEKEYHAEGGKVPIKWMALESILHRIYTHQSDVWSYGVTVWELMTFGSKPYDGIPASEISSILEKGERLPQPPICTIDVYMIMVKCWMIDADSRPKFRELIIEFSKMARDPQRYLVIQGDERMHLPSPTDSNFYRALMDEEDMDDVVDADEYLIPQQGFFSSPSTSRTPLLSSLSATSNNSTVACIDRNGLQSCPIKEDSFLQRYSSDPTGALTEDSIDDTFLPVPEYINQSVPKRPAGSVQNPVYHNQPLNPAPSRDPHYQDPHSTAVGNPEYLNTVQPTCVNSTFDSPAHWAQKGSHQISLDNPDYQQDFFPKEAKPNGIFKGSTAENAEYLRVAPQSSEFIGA
T7 sequence (O95819 whole entry): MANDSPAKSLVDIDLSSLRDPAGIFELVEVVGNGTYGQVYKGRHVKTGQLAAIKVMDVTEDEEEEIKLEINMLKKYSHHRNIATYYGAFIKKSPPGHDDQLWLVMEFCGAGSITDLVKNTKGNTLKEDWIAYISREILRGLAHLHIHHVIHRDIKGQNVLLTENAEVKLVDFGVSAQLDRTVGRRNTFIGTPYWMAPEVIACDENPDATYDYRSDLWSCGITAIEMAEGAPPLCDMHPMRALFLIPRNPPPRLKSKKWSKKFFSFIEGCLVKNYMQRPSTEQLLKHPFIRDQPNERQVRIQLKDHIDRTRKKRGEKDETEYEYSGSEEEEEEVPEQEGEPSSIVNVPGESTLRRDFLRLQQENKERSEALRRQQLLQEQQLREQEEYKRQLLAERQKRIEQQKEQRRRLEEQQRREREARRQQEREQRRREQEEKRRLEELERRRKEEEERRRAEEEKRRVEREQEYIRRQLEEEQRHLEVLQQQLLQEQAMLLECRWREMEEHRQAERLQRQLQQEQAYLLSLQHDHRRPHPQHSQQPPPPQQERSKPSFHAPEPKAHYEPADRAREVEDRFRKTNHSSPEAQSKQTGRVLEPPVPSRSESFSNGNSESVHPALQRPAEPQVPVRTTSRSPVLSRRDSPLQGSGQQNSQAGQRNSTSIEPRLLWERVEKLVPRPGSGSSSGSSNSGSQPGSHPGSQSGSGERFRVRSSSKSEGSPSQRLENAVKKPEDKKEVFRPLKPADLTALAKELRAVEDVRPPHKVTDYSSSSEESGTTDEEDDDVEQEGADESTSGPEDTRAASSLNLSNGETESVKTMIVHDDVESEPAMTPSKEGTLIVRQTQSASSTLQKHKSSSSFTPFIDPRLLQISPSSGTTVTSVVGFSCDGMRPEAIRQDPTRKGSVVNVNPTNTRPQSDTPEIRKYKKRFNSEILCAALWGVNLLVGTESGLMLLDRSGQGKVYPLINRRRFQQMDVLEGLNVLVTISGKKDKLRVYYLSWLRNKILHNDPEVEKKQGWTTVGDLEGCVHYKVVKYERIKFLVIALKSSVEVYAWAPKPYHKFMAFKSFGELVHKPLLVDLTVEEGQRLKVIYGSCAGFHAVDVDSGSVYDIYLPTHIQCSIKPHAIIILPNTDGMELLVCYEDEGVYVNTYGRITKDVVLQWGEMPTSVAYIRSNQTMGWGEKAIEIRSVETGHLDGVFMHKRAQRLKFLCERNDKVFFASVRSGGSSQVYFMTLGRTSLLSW

Row | SMILES | remaining binding at 1 µM [1] [%] | remaining binding at 1 µM [2] [%] | remaining binding at 1 µM ([3]; ABL1(F317I)-nonphosphorylated) [%] | remaining binding at 1 µM ([3]; ABL1(F317I)-phosphorylated) [%] | remaining binding at 1 µM [4] [%] | remaining binding at 1 µM [5] [%] | remaining binding at 1 µM [6] [%] | remaining binding at 1 µM [7] [%]
1 | CNc1nc(Nc2ccc(C(=O)N3CCOCC3)cc2OC)nc2[nH]cc(C#N)c12 [Example 1, 2-((2-methoxy-4-(morpholine-4-carbonyl)phenyl)amino)-4-(methylamino)-7H-pyrrolo[2,3-d]pyrimidine-5-carbonitrile] | 100 | 39 | 99 | 54 | 0 | 54 | 36 | 82
2 | CC1(Nc2nc(Nc3cnn([C@H]4CCN(C5COC5)C[C@@H]4F)c3Cl)nc3[nH]cc(C#N)c23)CC1 [Example 52, 2-((5-chloro-1-((3S,4S)-3-fluoro-1-(oxetane-3-yl)piperidine-4-yl)-1H-pyrazole-4-yl)amino)((1-methylcyclopropyl)amino)-7H-pyrrolo[2,3-d]pyrimidine-5-carbonitrile] | 75 | 0.7 | 25 | 7.6 | 0 | 2.3 | 0.2 | 18
3 | CCNc1nc(Nc2ccc(C(=O)N3CCC(N4CCOCC4)CC3)cc2OC)nc2[nH]cc(C(F)(F)F)c12 [Example 104, (4-((4-(ethylamino)-5-(trifluoromethyl)-7H-pyrrolo[2,3-d]pyrimidine-2-yl)amino)-3-methoxyphenyl)(4-morpholinopiperidine-1-yl)methanone] | 71 | 17 | 56 | 29 | 16 | 55 | 95 | 100
